Reference: patent publication US11554106B2, “Prevention of the risks associated with drug-induced QT interval prolongation by using a specific inhibitor of the production of ROS of miochondrial origin” (priority 2017, dated 2023)

Columns and labels:
[1] = tested on: tenocytes; details: pre-incubation of tenocytes with ATT at 10 μM for 3 hours; oxidative stress induced by FQ (ciprofloxacin, ofloxacin, pefloxacin); cited from earlier work
[2] = tested on: QT and QTc intervals; assay: Moxifloxacin-induced QT prolongation in dogs (single-dose cross-over, telemetry ECG); type: in vivo, male Beagle dogs
Protocol: Principle: This is a single-dose study in dogs to examine the protective effect of ATT on QT prolongation induced by the intravenous (IV) injection of a dose of moxifloxacin, which is considered the reference substance (positive control).
Methodology: This is a cross-over and single-dose study conducted on 4 groups of 4 male Beagle dogs receiving, depending on the group: • Group 1—control group: intraperitoneal injection [i.p.] of the ATT vehicle; • Group 2—ATT, 5 mg/kg, administered i.p.; • Group 3—moxifloxacin, 15 mg/kg, administered as a slow IV injection in 5% lactic acid at 0.5 mL/kg; and • Group 4—an ATT dose of 5 mg/kg is injected i.p. 30 minutes before a slow IV dose of moxifloxacin of 15 mg/kg (see above).
In this study, each dog is equipped with an implantable teletransmitter of the “DSI radio-telemetry transmitter” type allowing continuous ECG recording over 24 hours in 10-minute sequences, including the measurement of PQ, QRS, QT and QTc spaces (correction according to the Van de Water formula), heart rate as well as systolic and diastolic BP and mean BP. ECG analysis is performed using Notocord Systems® ECG51a software and BP analysis using APR30a software, also from Notocord Systems®.

[3] = tested on: QTcF interval; assay: TQT study of moxifloxacin-induced QT prolongation in healthy volunteers; type: in vivo, humans; details: 75 mg ATT oral 60 minutes before 400 mg oral moxifloxacin
Protocol: Principle: Following the 2005 ICH E14 recommendation (FDA, 2005), a TQT study (“through QT study”) was conducted in healthy volunteers to evaluate the protective effect of ATT on QT prolongation induced by a single oral dose of 400 mg moxifloxacin.
Methodology: This was a single-dose, cross-over study conducted in healthy volunteers.
The volunteers, 16 men aged 18 to 40, were selected based on the following criteria: medical history, physical examination (including a BMI between 18 and 26 kg/m2), vital signs, clinical examinations, biological check-up and 12-lead ECG.
The selected volunteers were equipped with a Holter ECG for a 24-hour recording.
Four sequences were tested with a 7-day wash-out period between each: • 1st sequence—no treatment was given; • 2nd sequence—each volunteer received a 400 mg oral dose of moxifloxacin; • 3rd sequence—each volunteer took 75 mg of ATT by mouth (3 tablets of Sulfarlem® 25); and • 4th sequence—each volunteer received a 400 mg oral dose of moxifloxacin, 60 minutes after an oral dose of 75 mg ATT (3 tablets of Sulfarlem® 25). […]

[4] = 70 years marketed in France; cited from earlier work
[5] = tested on: acute organochlorine poisoning; assay: Treatment of a cat with acute organochlorine poisoning; type: in vivo; details: one cat, unpublished experiment
From the text: Knowing that when ROS are overexpressed by mitochondria, this induces a simultaneous overproduction of cytosolic ROS, whose production source is NADPH oxidase (or NOX, usually NOX4 and NOX2), some authors conclude that NOX are the first responsible when in fact mitochondrial production is the culprit (Gosh R. et al., J. Clin. Diagn. Res., 2017, 11: BC09-BC12; Mangum L. C. et al., Chem. Res. Toxicol, 2015, 28: 570-584).

[6] = tested on: human Jurkat T cells; details: cited from earlier work
[7] = rats; cited from earlier work
[8] = marketed form; cited from earlier work
[9] = Solubility in water
[10] = tested on: 1Q site of the respiratory chain; details: cited from earlier work

COc1ccc(-c2cc(=S)ss2)cc1 [ATT, 5-(4-methoxyphenyl)-3H-1,2-dithiole-3-thione]
cellular production of ROS [1]: significantly reduces | QT and QTc intervals ([2]; ATT 5 mg/kg i.p. 30 minutes before moxifloxacin 15 mg/kg slow IV): maintained in the normal range | upper limit of the confidence interval of the effect of moxifloxacin on the QTcF interval [3]: less than 10 msec | side effects relating to long-term use [4]: no side effects have been reported | outcome of treatment of acute organochlorine poisoning [5]: successfully treated | free radical scavenger and antioxidant activity [6]: powerful free radical scavenger and antioxidant | Vd [7]: about 2 L/kg

Oc1ccc(-c2cc(=S)ss2)cc1 [ATX, 4-OH-anethole trithione]
circulating product found after oral administration of ATT [8]: most of the circulating product found is ATX | solubility in water [9]: insoluble in water

O=[N+]([O-])c1ccc(Oc2ccc(S(=O)(=O)NC3CCCCC3)cc2)cc1 [NC-POBS, N-cyclohexyl-4-(4-nitrophenoxy)benzenesulfonamide]
specific inhibition of mitochondrial ROS production [10]: specific inhibitor of mitochondrial ROS production

COc1c(N2C[C@@H]3CCCN[C@@H]3C2)c(F)cc2c(=O)c(C(=O)O)cn(C3CC3)c12 [moxifloxacin]
QT and QTc intervals ([2]; moxifloxacin 15 mg/kg slow IV alone): significantly increased
